Laboratory results taken from patent publication US10314847B2, “Scalarane sesterterpenoid, pharmaceutical composition and topoisomerase II and Hsp90 inhibitor for treating cancer, and use and preparation method thereof” (NATIONAL DONG HWA UNIVERSITY, priority 2017, dated 2019).

Key:
Molt 4 = system: Molt 4
Description: The cell lines were obtained from the American Type Culture Collection (ATCC, Manassas, Va., U.S.A.) or the Japanese Collection of Research Biosources (JCRB) Cell Bank (Japan). […] Antibodies against XIAP, NFκB (p65), GADD, CDK 4, HSF 1, ATF 6 and β-tubulin were obtained from Santa Cruz Biotechnology (Santa Cruz, Calif., U.S.A.). The Hybond ECL transfer membrane and ECL Western blotting detection kits were obtained from Amersham Life Sciences (Amersham, U.K.).
Several cancer cell lines including leukemia K562, Molt 4, and HL 60 cells, prostate cancer LNCaP cells, colon cancer DLD-1 cells and breast cancer T-47D cells were used to evaluate the antiproliferative activity (referring to Table 2).
It is known that mitochondria are critical intracellular loci of ROS production and ROS exposure can lead to the […] opening. The antioxidant, microsomal GST1, in the inner mitochondrial membrane can interact with the mitochondrial permeability transition (MPT) regulator proteins, such as ANT and/or CypD, to form a MPT pore contributing to mitochondria-mediated cell death. In addition, mitochondrial homeostasis of tumor cells is regulated by an organelle-specific Hsp90 chaperone network.

Molt 4 cells [1] = test: Annexin V/PI apoptosis assay; format: cell-based, human; settings: Molt 4 cells, 0.0625, 0.125 and 0.25 μg/mL, 24 hours, dose-dependent
Protocol: Annexin V/Propidium Iodide (PI) Apoptosis Assay:
The externalization of phosphatidylserine (PS) and membrane integrity were quantified using an annexin V-fluorescein isothiocyanate (annexin V-FITC) staining kit. In brief, 10^6 cells were grown in 35 mm diameter plates and were labeled with annexin V-FITC (10 μg/mL) and PI (20 μg/mL) prior to harvesting. After labeling, all plates were washed with a binding buffer and harvested. Cells were resuspended in the binding buffer at a concentration of 2×10^5 cells/mL before analysis by flow cytometer FACS-Calibur (Becton-Dickinson, San Jose, Calif., U.S.A.) and CellQuest software. Approximately 10,000 cells were counted for each determination.

human topoisomerase II = target: T1, human topoisomerase II (Homo sapiens, UniProt P11388); test: Assay of topoisomerase II catalytic inhibitors and poisons (cell-free pHOT1 DNA relaxation/cleavage); format: biochemical
T1 construct: purchased Topogen
Protocol: Assay of Topoisomerase II Catalytic Inhibitors and Poisons:
Reactions were terminated by adding 2 μL of 10% SDS to facilitate trapping the enzyme in a cleavage complex, followed by the addition of 2.5 μL of proteinase K (50 μg/mL) to digest the bound protein (incubated at 37° C. for 15 minutes) and finally by adding 0.1 volume of the sample loading dye. The DNA products were analyzed via electrophoresis through vertical 2% agarose gels at 2 voltage/cm in 0.5×TAE buffer. Gels were stained with ethidium bromide (EtBr) and photographed using an Eagle Eye II system (Stratagene, La Jolla, Calif., U.S.A.). The quantitative analysis of the DNA Topo II activity was performed.

Molt 4 cells [2] = test: JC-1 staining, mitochondrial membrane potential disruption; format: cell-based, human; settings: Molt 4 cells, 0.0625, 0.125 and 0.25 μg/mL, 24 hours, dose-dependent
Protocol: Determination of Reactive Oxygen Species (ROS) Generation, Calcium Accumulation, and Matrix Metalloproteinase (MMP) Disruption:
MMP disruption, calcium accumulation and ROS generation were detected with the JC-1 cationic dye (5 μg/mL), the fluorescent calcium indicator (Fluo 3, […]) and the carboxy derivative of fluorescein (carboxy-H2DCFDA, […]), respectively. In brief, the treated cells were labeled with a specific fluorescent dye for 30 minutes. After labeling, cells were washed with PBS and resuspended in PBS at a concentration of 1×10^6 cells/mL before analysis via flow cytometry.

γH2AX = test: Western blot of γH2AX expression in Molt 4 cells; format: cell-based, human; settings: Molt 4 cells, 0.0625, 0.125 and 0.25 μg/mL, 24 hours
Protocol: Protein expression was analyzed with Western blotting. GAPDH was used as the loading control.
In order to confirm whether the DNA damage-induced by the marine terpenoids of the present invention involved the inhibition of Topo II activity, a cell-free DNA cleavage assay using an enzyme-mediated negatively supercoiled pHOT1 plasmid DNA was applied. […] These marine terpenoids suppressed Topo II activity, resulting in the inhibition of supercoiled DNA relaxation in a dose-dependent manner (FIG. 2(A)). […] To determine whether the apoptotic mechanism of compounds 1 to 3 affects γH2AX (as a biomarker of DNA damage) induction, Western blot analysis was employed to examine the activation of γH2AX.

[3] = system: human Molt 4 tumor xenograft; test: Human leukemia Molt 4 cells xenograft animal model; format: in vivo, mice; settings: 1.14 μg/g intraperitoneal, 33 days
Protocol: FIG. 3(A) is a diagram showing the effect of compound 3 on the tumor growth in an in vivo human Molt 4 tumor xenograft animal model. Tumor-bearing nude mice were intraperitoneally injected with solvent control (DMSO) and compound 3 (1.14 μg/g) for 33 days. […] Control, n=8; compound 3, n=7.
FIG. 3(B) is a diagram showing the effect of compound 3 on the body weight in the in vivo human Molt 4 tumor xenograft animal model. Tumor-bearing nude mice were intraperitoneally injected with solvent control (DMSO) and compound 3 (1.14 μg/g) for 33 days. The body weight were measured every other day, and the results are expressed as mean±SD. Control, n=8; compound 3, n=7.
Human Leukemia Molt 4 Cells Xenograft Animal Model:
Six-week-old male immunodeficient athymic mice were purchased from the National Laboratory Animal and Research Center (Taipei, Taiwan). All of the animals were maintained under standard laboratory conditions (temperature 24-26° C., 12-12 hour dark-light circle) and fed with a laboratory diet and water. Molt 4 cells (1×10^6) resuspended in 0.2 mL PBS were injected subcutaneously (s.c.) into the right flank of each mouse, and tumor growth was monitored every day. […] Tumor size was measured three times a week using calipers and tumor volumes were calculated according to the standard formula: width^2×length/2.

T1 sequence (P11388 whole entry): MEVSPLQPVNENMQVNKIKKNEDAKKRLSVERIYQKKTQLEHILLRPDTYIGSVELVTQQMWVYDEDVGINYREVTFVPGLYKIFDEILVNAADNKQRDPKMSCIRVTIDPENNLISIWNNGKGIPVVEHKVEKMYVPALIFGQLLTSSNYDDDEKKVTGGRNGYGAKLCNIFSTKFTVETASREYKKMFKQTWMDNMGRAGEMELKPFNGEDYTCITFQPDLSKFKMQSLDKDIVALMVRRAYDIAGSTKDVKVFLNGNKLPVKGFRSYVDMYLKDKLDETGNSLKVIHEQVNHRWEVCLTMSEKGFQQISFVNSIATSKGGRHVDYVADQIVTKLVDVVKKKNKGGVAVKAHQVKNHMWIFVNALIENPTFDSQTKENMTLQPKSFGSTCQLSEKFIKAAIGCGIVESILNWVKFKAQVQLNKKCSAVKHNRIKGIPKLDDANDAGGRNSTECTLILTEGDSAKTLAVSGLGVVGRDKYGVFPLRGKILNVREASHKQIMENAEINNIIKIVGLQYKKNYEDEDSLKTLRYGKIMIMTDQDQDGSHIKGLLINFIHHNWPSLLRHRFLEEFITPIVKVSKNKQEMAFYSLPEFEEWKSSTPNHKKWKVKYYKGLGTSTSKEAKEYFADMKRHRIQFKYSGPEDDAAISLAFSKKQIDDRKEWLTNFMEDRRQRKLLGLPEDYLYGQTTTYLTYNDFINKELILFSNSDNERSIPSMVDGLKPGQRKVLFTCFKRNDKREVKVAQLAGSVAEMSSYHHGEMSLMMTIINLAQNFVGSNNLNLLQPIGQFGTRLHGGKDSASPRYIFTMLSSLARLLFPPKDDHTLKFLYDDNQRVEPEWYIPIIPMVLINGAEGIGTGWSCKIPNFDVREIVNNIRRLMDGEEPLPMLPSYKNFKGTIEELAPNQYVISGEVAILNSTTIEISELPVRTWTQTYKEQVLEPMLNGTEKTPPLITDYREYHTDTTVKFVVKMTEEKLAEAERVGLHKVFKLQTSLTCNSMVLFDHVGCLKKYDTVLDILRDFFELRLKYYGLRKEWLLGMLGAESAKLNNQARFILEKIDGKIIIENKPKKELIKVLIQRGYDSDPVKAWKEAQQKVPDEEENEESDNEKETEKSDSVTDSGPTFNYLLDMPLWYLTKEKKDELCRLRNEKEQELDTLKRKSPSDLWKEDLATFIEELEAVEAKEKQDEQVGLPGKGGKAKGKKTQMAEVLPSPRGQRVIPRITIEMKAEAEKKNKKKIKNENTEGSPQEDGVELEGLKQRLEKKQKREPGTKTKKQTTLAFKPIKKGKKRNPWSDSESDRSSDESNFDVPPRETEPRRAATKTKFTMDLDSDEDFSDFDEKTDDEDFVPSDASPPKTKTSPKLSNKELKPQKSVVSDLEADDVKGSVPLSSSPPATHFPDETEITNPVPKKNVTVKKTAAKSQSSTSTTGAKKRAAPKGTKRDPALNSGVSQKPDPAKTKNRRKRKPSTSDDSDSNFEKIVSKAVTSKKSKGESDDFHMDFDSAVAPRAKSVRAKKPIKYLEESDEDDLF

SMILES	Cytotoxic effect IC50, Molt 4 (Molt 4)	Apoptotic population (annexin-V/PI) (Molt 4 cells [1])	IC50 (human topoisomerase II; cell-free system, read-out: Topo II activity IC50 (converted))	Mitochondrial membrane potential (JC-1) (Molt 4 cells [2])	Expression of γH2AX (DNA damage biomarker) (γH2AX)	Mice body weights versus control [3]	inhibition at 0.08 µg/mL (human topoisomerase II; 0.08 μg/mL)	inhibition at 0.312 µg/mL (human topoisomerase II; 0.312 μg/mL)	inhibition at 1.25 µg/mL (human topoisomerase II; 1.25 μg/mL)	inhibition at 5 µg/mL (human topoisomerase II; 5 μg/mL)	inhibition at 20 µg/mL (human topoisomerase II; 20 μg/mL)	Topo II activity IC50 (human topoisomerase II; cell-free system)
CC[C@@H](O)CC(=O)O[C@@H]1C[C@@H]2[C@@]3(C)CCC[C@](C)(CC)[C@@H]3CC[C@@]2(C)[C@@H]2CC=C(C(C)=O)[C@H](C=O)[C@@]12C (relative stereo) [Compound 2, 12β-(3′β-hydroxypentanoyloxy)-20,24-dimethyl-24-oxo-scalara-16-en-25-al]	0.30 µg/mL	increase in the apoptotic population	719 nM	disruption in mitochondrial membrane potential	significantly enhanced the expression of γH2AX in a dose-dependent manner							
CC(C)=CCC/C(C)=C/CC/C(C)=C/CC/C(C)=C/CC1=CC(=O)C=CC1=O [Compound 3, 2-tetraprenil-1,4-benzochinone]	0.34 µg/mL	increase in the apoptotic population		disruption in mitochondrial membrane potential	activation of DNA damage was not observed	no significant difference	7%	13%	28%	90%	98%	0.43 µg/mL
